Data taken from patent publication US10881639B2, “Use of composition of multivitamin in preparing drug for stimulating gastrointestinal system motility” (Zensun (Shanghai) Science & Technology, Co., Ltd., priority 2015, dated 2021).
Counter-ions that a name gives are not always drawn.

Tested on: mice with 2.5 mg/kg loperamide-induced constipation
Test: Small intestinal propulsive rate of a charcoal solution in mice with 2.5 mg/kg loperamide-induced constipation, with positive controls (Example 2)
Type: in vivo, mouse
Settings: for Effect on the small intestinal propulsive rate (%) vs model group, in words: positive drugs at 1× dose, loperamide-induced constipation mouse model; for Propulsive distance of the charcoal solution / Small intestinal propulsive rate: positive drugs intragastric: itopride 30.75, naloxone 5.0, domperidone 6.16, mosapride citrate 3.075 mg/kg, loperamide 2.5 mg/kg s.c., 20 min after charcoal
Text: 1.2 Experimental Animals Species: mouse Strains: C57BL/6 Gender and quantity: Female, 65 Animal week-age: 8-9 weeks Weight range: 19.0-25.0 g Animal sources: Shanghai Lingchang Biotechnology Co. LTD Animal certificate number: 2013001804393 2. Experimental Design and Methods 2.1 Test Grouping:
Experimental animals were randomly divided into 8 groups (8 animals per group) by the random number table method.
2.2 Reagent Preparation 1) 0.5% CMC—Na solution: 2.0 g of CMC—Na powder was weighed and 300 ml ultra-pure water was slowly added thereto; the mixture was subjected to magnetic stirring until it was completely dissolved to reach a constant volume of 400 ml, thereby preparing a clear solution of 0.5%, which was stored at 4° C. for later use. 2) 1% Tween-80 in saline: 40 ml saline was accurately measured using a measuring cylinder and added into a 50 ml centrifuge tube; 400 μl Tween-80 was measured using a pipette and added into the centrifuge tube; and the mixture was subjected to vortex oscillation to be homogeneous and was then placed at room temperature for later use. 3) 5% charcoal solution: 100 g of Arabic gum was accurately weighed and 800 ml water was added thereto; and the solution was boiled until it was transparent. 50 g of activated carbon powder was weighed and added into the above solution and the mixture was boiled for three times. After the solution was cool, water was added to reach a constant volume of 1000 ml. 4) Group for the composition comprising B vitamins (9 components) and C vitamins (5×): one tablet of the composition comprising B vitamins (9 components) and C vitamins was taken; after its grinding, 19.5 ml of 0.5% CMC—Na was added; and the mixture was subjected to oscillation to become homogeneous, thereby forming a stable suspension. It was used immediately after its preparation. 5) Group for the composition comprising B vitamins (9 components) and C vitamins (1×): 2 ml of the suspension of the composition comprising B vitamins (9 components) and C vitamins (5×) was taken and 8 ml of 0.5% CMC—Na was added; and the mixture was subjected to oscillation to become homogeneous, thereby forming a stable suspension. It was used immediately after its preparation. 6) Domperidone: 32.52 ml of 0.5% CMC—Na was added after grinding of one domperidone tablet; and the mixture was subjected to oscillation to become homogeneous, thereby forming a stable suspension. It was used immediately after its preparation. 7) Mosapride citrate: 32.52 ml of 0.5% CMC—Na was added after grinding of one mosapride citrate tablet; and the mixture was subjected to oscillation to become homogeneous, thereby forming a stable suspension. It was used immediately after its preparation. […] It was used immediately after its preparation. […] It was used immediately after its preparation. 10) Loperamide: 5.0 mg of loperamide was accurately weighed and 20 ml of a saline solution with 1.0% Tween 80 was added thereto; after being subjected to oscillation to become homogeneous, the mixture was subjected to ultrasound for at least 5 minutes. This reagent was used immediately after it was prepared. 2.3 Test Methods
After 30 minutes of administration, the control group was injected subcutaneously with the saline solution containing 1.0% Tween 80 while the other groups were injected subcutaneously with a loperamide solution in an injection volume of 10 ml/kg. After a subcutaneous injection for 30 minutes, an intragastric administration of the charcoal solution was performed at an administration volume of 10 ml/kg^[1,2,3].
2.4 Observation Index Small intestinal propulsive rate of the charcoal solution (%)=(the propulsive distance of the charcoal solution/total length of the small intestine)×100
Twenty minutes after an intragastric administration of the charcoal solution, the animal was sacrificed by cervical dislocation and its abdominal cavity was immediately opened to separate the mesentery.

## CCOc1cc(N)c(Cl)cc1C(=O)NCC1CN(Cc2ccc(F)cc2)CCO1 (stereo not drawn) [Mosapride Citrate, Mosapride citrate]
  Effect on the small intestinal propulsive rate (%) vs model group, in words: do not have the improvement effect
  Propulsive distance of the charcoal solution: 11.7 ± 2.1 cm
  Small intestinal propulsive rate: 60.7 ± 12.1 %
Listed as mosapride citrate
  Small intestinal propulsive rate: 20.1±5.7%

## COc1ccc(C(=O)NCc2ccc(OCCN(C)C)cc2)cc1OC [Itopride hydrochloride]
  Effect on the small intestinal propulsive rate (%) vs model group, in words: do not have the improvement effect
  Propulsive distance of the charcoal solution: 5.0 ± 1.2 cm
hydrochloride
  Small intestinal propulsive rate: 26.4 ± 7.0%
Listed as itopride hydrochloride, hydrochloride
  Small intestinal propulsive rate: 26.4±7.0%

## O=c1[nH]c2ccccc2n1CCCN1CCC(n2c(=O)[nH]c3cc(Cl)ccc32)CC1 [Domperidone]
  Effect on the small intestinal propulsive rate (%) vs model group, in words: do not have the improvement effect
  Propulsive distance of the charcoal solution: 4.0 ± 1.1 cm
  Small intestinal propulsive rate: 20.1 ± 5.7%
Listed as domperidone
  Small intestinal propulsive rate: 19.5±3.8%

## C=CCN1CC[C@]23c4c5ccc(O)c4O[C@H]2C(=O)CC[C@@]3(O)[C@H]1C5 [Naloxone]
  Effect on the small intestinal propulsive rate (%) vs model group, in words: also has the improvement effect
  Propulsive distance of the charcoal solution: 3.9 ± 0.8 cm
  Small intestinal propulsive rate: 19.5 ± 3.8%
